Experimental data published in patent US20110166196A1, “TREATMENT AND PROPHYLAXIS OF EPILEPSY AND FEBRILE SEIZURES” (priority 2008, published 2011).

System: synapses between CA3 and CA1 pyramidal cells
Assay: Field EPSP recordings in hippocampal slices
Type: cell-based, rat
Protocol: The maximal initial slope of fEPSPs was calculated using a LabVIEW-based program (National Instruments). The peak amplitude of each EPSC was measured by comparing a 10 msec time period immediately prior to the stimulus with the peak of the EPSC using this program as well. Occasionally polysynaptic responses were evoked, and in these cases, only the initial monosynaptic event was measured. To positively identify LTD, EPSCs measured every 10 seconds were averaged in 1 minute intervals. EPSC amplitude values were normalized to control pre-HFS EPSC amplitude values (baseline period of at least 5 minutes prior to HFS) and subjected to analysis of variance (ANOVA) repeated measures analysis with a post-hoc Dunnett's test (GraphPad Prism, Version 4). […] EPSC amplitude values 15 to 20 minutes post-HFS were compared between control LTD experiments and those carried out either in transgenic TRPV1^−/− mice, or in the presence of drug using a t-test (unpaired, two-tailed, with Welch's correction if the variances between the groups were unequal). To calculate the effects of capsaicin, 12-(S)-HPETE or WIN 55,212-2 application on basal excitatory glutamatergic transmission, normalized EPSC amplitudes or fEPSP slopes were averaged in the final 5 minutes of drug application and compared with EPSCs/EPSPs 5 minutes prior to drug application. In addition, to measure capsaicin's effects on holding current, the peak change in holding current was measured during bath application of 3 μM capsaicin. The n-values reported refer to the number of slices. All combined data are expressed as mean±the standard error of the mean (s.e.m.).

For COc1cc(CNC(=O)CCCCC=CC(C)C)ccc1O [capsaicin, 8-methyl-N-vanillyl-6-nonenamide], the “fEPSP slopes after 10-15 minutes in capsaicin” value (1 μM capsaicin, P=0.58, n=5) was 102.8±5.4 % of pre-drug control values and the “effect on synaptic transmission at the CA3-CA1 synapse” value (10 μM capsaicin, often with depression of presynaptic fiber volley) was “depressed synaptic transmission”.
